Here are results for three compounds from paper PMC7998669, “7-(2-Anilinopyrimidin-4-yl)-1-benzazepin-2-ones Designed by a “Cut and Glue” Strategy Are Dual Aurora A/VEGF-R Kinase Inhibitors” (Molecules, 2021).

A word on the IC50: it is the concentration at which inhibition is half-maximal. Low values mean greater potency in that assay, high ones weaker potency in that assay.

Assay in all cases: radiometric 33PanQinase protein kinase assay
Type in all cases: biochemical
Conditions in all cases: radiometric assay, 1 µM ATP

One assay concerns the target T1, Aurora-B (Homo sapiens, UniProt Q96GD4).
T1 construct: host or cells: Sf9 (baculovirus)
How it is done: (§1) The inhibitory activity of prototype 2a was determined in a panel of 24 tumor-relevant protein kinases using a radiometric assay. Only the kinases Aurora A, VEGF-R2 and VEGF-R3 were inhibited with single digit micromolar IC50 values (Table 2). Structural modifications were then implemented, particularly directed to improve inhibition of Aurora A. The so-designed congeners with small substituents at the aniline ring 2b–2n were examined for inhibition of Aurora A and of VEGF-R2, VEGF-R3 and Aurora B for comparison (Table 3).
(§2) The screening for protein kinase inhibition was performed with the radiometric ^33Panqinase activity assay at Reaction Biology Europe GmbH (Freiburg) using a robotic system (Beckmann Coulter/SagianRoboter) and 96-well plates (FlashPlates, Perkin/Elmer/NEN, Boston, MA, USA). In brief, the transfer of ^33P-phosphate into the substrate was measured with a microplate scintillation counter (Microbeta Trilux, Wallace). Protein kinases were expressed in Sf9 cells as recombinant glutathione S-transferase (GST) or polyhistidine (His)-tagged proteins in baculovirus. Isolation and purification of expressed kinases were performed with affinity chromatography by using GSH agarose (Sigma) or Ni-NTA agarose (Qiagen). The standard solution for each enzyme contained: 60 mM HEPES-NaOH (pH 7.5), 3 mM MgCl2, 3 µM sodium orthovanadate, 1.2 mM DTT, 50 µg/mL PEG20000 and 1 µM [γ-^33P]-ATP (approximately 5 × 10^5 cpm per well). In chronological order the reaction mixture was prepared: 20 µL standard solution, 5 µL ATP solution in water, 5 µL of the compound in 10% DMSO and 20 µL of enzyme/substrate mixture (50:50). Each kinase contained different substrates in different concentrations: 125 ng/50 µL Poly(Glu, Tyr)4:1 for 20 ng/50 µL IGF1-R, 25 ng/50 µL IGF1-R, 20 ng/50 µL EGF-R, 25 ng/50 µL EGF-R, 40 ng/50 µL EGF-R, 10 ng/50 µL EPHB4, 20 ng/50 µL EPHB4, 200 ng/50 µL ERBB2, 10 ng/50 µL SRC, 100 ng/50 µL FAK, 200 ng/50 µL FAK, 50 ng/50 µL VEGF-R2, 100 ng/50 µL VEGF-R3, 200 ng/50 µLTIE2; 250 ng/50 µL Poly(Glu, Tyr)4:1 for 200 ng/50 µL TIE2; 500 ng/50 µL tetra (LRRWSLG) for 50 ng/50 µL Aurora-A, 25 ng/50 µL PAK4, 25 ng/50 µL PDK1; 250 ng/50 µL tetra (LRRWSLG) for 50 ng/50 µL Aurora-B, 200 ng/50 µL Aurora-B; 125 ng/50 µL Histon H1 for 100 ng/50 µL CDK2/CycA; 250 ng/50 µL Rb-CTF for 50 ng/50 µL CDK/CycD1; 500 ng/50 µL Rb-CTF for 50 ng/50 µL CDK4/CycD1; 125 ng/50 µL Poly(ala, Glu, Lys, Tyr)6:2:5:1 for 25 ng/50 µL INS-R, 50 ng/50 µL PDGFR-beta, 100 ng/50 µL PDGFR-beta, 100 ng/50 µL FLT3, 150 ng/50 µL FLT3, 20 ng/50 µL MET, 50 ng/50 µL MET, 100 ng/50 µL MET; 250 ng/50 µL Casein for 200 ng/50 µL CK2-alpha1, 200 ng/50 µL PLK1; 1000 ng/50 µL Casein for 200 ng/50 µL PLK1, 200 ng/50 µL CK2-alpha1; 1000 ng/50 µLGSK3 (14–27) for 100 ng/50 µL AKT1; 125 ng/50 µL p53-CTM for 150 ng/50 µL CK2-alpha1, 200 ng/50 µLCK2-alpha1; 250 ng/50 µL MEK-KM for 20 ng/50 µL B-RAF-VE; autophosphorylation at ARK5, COT and SAK. After incubation (80 min, 30 °C) the reaction was stopped by adding 50 µL 2% (v/v) phosphoric acid to the reaction mixture. The microplate was washed twice with 200 µL 0.9% (v/v) saturated sodium chloride or water. The measured radioactivity, conditioned by the incorporation of [γ-^33P]-phosphate, is proportional to kinase activity. Furthermore, low control and high control were measured to determine the residual activity (%). As low controls, mixtures with substrate, but without enzyme were used to determine the unspecific binding of [γ-^33P]-phosphate to the well plate. Mixtures with enzyme, but without inhibitor were used as high controls to determine maximum enzyme activity. The IC50-values of the distinct compounds were calculated with Quattro Workflow V1.1.0.8 (Quattro Research GmbH, München, Germany). Dose response curves were generated by measurement of the residual activity of ten different inhibitor concentrations (0.1 mM, 30.0 µM, 10 µM, 3.0 µM, 1.0 µM, 0.3 µM, 0.1 µM, 30.0 nM, 10.0 nM and 3.0 nM). […]

The target of the next assay is T2, Aurora-A (Homo sapiens, UniProt O14965).
T2 construct: host or cells: Sf9 (baculovirus)
T2 sequence (O14965 1-403): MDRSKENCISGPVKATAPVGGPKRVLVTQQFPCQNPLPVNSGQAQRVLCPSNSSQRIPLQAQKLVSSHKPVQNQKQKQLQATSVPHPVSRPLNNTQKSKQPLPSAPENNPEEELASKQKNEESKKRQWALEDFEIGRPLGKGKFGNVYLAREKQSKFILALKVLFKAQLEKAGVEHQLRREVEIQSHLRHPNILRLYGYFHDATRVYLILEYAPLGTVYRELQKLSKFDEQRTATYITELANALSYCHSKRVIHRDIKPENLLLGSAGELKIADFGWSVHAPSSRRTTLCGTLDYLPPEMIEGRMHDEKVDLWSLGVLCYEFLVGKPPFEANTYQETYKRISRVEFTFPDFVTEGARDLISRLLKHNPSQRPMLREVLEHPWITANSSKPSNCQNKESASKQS
On the procedure:
as §1, §2

The next assay concerns the target T3, VEGF-R2 (Homo sapiens, UniProt P35968).
T3 construct: host or cells: Sf9 (baculovirus)
On the procedure:
as §1, §2

The next assay addresses T4, VEGF-R3 (Homo sapiens, UniProt P35916).
T4 construct: host or cells: Sf9 (baculovirus)
How it is done: as §1, §2

Structures are written as SMILES.

T1 sequence (Q96GD4 whole entry): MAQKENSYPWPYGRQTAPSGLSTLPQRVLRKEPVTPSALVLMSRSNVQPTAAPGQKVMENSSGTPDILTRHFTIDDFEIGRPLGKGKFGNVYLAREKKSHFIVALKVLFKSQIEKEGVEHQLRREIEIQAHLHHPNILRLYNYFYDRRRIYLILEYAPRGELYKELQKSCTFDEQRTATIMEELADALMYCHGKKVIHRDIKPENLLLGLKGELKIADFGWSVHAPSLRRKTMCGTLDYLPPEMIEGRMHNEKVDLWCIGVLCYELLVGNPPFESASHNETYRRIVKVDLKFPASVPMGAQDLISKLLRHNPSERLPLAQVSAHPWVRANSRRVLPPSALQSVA
T4 sequence (P35916 25-1363): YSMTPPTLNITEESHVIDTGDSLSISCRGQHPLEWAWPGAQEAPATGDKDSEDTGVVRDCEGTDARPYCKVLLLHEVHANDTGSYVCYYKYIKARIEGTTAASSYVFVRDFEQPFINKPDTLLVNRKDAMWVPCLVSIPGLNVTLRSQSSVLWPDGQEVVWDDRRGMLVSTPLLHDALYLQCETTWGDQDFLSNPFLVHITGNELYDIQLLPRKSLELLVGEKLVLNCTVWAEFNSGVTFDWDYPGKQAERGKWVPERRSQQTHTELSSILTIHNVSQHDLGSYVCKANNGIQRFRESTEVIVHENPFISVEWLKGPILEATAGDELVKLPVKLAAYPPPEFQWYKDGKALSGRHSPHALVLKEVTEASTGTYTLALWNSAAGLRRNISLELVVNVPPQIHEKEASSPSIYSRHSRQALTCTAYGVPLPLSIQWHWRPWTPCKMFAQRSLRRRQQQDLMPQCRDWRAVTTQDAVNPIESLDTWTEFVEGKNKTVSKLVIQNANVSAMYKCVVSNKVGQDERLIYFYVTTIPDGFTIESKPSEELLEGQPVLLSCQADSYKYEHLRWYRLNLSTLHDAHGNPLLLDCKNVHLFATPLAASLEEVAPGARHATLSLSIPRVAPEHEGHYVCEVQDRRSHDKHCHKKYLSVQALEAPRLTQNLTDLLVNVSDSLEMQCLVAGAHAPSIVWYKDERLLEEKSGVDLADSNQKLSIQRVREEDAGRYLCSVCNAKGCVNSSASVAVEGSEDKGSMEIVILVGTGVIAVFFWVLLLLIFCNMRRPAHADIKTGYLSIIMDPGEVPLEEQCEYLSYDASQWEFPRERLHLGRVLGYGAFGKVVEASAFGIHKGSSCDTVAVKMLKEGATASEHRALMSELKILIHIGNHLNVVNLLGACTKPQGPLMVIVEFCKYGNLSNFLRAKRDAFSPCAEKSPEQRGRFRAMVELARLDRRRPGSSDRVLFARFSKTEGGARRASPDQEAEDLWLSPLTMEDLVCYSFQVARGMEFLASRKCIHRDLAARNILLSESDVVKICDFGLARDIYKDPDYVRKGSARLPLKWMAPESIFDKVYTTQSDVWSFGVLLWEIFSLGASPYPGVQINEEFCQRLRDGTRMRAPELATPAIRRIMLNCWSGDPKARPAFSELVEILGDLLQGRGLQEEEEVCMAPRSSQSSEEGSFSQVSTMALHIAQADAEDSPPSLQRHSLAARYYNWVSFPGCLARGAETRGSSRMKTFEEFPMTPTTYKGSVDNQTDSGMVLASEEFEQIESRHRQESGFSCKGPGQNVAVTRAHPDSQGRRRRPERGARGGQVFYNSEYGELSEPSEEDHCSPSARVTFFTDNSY
T3 sequence (P35968 20-1356): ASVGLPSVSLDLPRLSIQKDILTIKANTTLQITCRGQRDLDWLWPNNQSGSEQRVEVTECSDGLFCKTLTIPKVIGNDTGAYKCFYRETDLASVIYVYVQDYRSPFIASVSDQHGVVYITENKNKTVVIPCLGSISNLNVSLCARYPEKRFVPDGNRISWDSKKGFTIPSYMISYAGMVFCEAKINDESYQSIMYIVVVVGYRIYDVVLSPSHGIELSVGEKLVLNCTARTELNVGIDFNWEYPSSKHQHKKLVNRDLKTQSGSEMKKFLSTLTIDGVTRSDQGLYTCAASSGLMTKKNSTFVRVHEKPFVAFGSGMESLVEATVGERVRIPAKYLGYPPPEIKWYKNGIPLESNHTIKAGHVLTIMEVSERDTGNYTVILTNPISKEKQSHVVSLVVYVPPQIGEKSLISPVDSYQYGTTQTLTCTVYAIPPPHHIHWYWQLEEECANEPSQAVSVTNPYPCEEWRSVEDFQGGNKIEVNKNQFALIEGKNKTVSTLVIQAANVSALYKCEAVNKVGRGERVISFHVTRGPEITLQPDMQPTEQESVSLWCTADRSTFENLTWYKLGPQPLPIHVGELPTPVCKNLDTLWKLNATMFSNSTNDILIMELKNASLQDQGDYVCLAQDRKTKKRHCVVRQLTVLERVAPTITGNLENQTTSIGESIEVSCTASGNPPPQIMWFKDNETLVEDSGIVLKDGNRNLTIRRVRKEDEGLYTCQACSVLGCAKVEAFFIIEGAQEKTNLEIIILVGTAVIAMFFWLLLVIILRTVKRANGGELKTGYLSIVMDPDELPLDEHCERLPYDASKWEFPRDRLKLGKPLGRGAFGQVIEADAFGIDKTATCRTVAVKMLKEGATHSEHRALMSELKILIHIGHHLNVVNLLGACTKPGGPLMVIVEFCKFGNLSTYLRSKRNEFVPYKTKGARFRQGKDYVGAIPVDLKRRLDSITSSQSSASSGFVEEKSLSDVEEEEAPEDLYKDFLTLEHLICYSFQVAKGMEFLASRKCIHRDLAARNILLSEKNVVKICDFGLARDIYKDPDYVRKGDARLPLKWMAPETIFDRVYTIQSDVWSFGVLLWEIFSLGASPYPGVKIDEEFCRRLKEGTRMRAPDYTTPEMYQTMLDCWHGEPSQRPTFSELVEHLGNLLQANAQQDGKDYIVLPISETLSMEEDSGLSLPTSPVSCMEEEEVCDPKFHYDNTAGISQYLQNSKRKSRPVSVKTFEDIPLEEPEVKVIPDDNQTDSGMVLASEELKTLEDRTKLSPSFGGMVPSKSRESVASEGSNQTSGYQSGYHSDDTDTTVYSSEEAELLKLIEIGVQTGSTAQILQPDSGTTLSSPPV

Turning to `O=C1CCCc2cc(-c3ccnc(Nc4ccccc4)n3)ccc2N1` [Compound 2a, 7-(2-Anilinopyrimidin-4-yl)-1,3,4,5-tetrahydro-2H-1-benzazepin-2-one], the IC50 against Aurora-B was 26 µM; at Aurora-A it was 2.4 µM; against VEGF-R2, 2.8 µM; against VEGF-R3, 5.9 µM.
Consider `O=C1CCCc2cc(-c3ccnc(Nc4ccc(O)cc4)n3)ccc2N1` [Compound 2e, 7-[2-(4-Hydroxyanilino)pyrimidin-4-yl]-1,3,4,5-tetrahydro-2H-1-benzazepin-2-one], for which the IC50 at Aurora-B turned out to be 3.5 µM; against Aurora-A, 0.99 µM; against VEGF-R2, 1.1 µM; against VEGF-R3, 1.5 µM.
As to `COc1ccc(Nc2nccc(-c3ccc4c(c3)CCCC(=O)N4)n2)cc1O` [Compound 2n, 7-[2-(3-Hydroxy-4-methoxyanilino)pyrimidin-4-yl]-1,3,4,5-tetrahydro-2H-1-benzazepin-2-one], the IC50 was determined as 4.5 µM against Aurora-B, 1.4 µM against Aurora-A, 0.63 µM against VEGF-R2 and 0.55 µM against VEGF-R3.
